Drawing on paper PMC11742793 (BMC Chemistry, 2025), this text covers Kd for one compound.

In the assay the target is P. falciparum lactate dehydrogenase (PfLDH) (Plasmodium falciparum, UniProt Q76NM3). The assay can be described thus: microscale thermophoresis. The format is binding.
P. falciparum lactate dehydrogenase (PfLDH), sequence (Q76NM3 1-316): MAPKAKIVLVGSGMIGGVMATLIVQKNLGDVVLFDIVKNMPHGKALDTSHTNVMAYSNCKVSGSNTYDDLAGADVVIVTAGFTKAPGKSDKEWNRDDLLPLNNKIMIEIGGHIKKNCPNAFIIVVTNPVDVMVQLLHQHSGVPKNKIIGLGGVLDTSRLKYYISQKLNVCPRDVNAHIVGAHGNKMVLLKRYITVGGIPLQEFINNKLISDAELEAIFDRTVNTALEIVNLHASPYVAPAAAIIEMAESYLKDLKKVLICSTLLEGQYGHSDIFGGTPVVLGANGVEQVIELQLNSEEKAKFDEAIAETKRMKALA

The Kd is the constant that tells how readily two partners part at equilibrium. The low end stands for a tighter complex, the high end for a looser complex. Turning to `C=C(C)[C@@H]1CC[C@]2(C(=O)O)CC[C@]3(C)[C@H](CC[C@@H]4[C@@]5(C)CC[C@H](O)C(C)(C)[C@@H]5CC[C@]43C)[C@@H]12` [BA, betulinic acid], the Kd worked out at 104 nM.
